In ChEMBL document CHEMBL2424531, “Molecular docking- and genetic algorithm-based approaches to produce robust 3D-QSAR models” (Med Chem Res, 2013):

Test: Inhibition of glycogen phosphorylase b (unknown origin)
Design: species or system Homo sapiens
OC[C@H]1O[C@@](O)(CO)[C@H](O)[C@@H](O)[C@@H]1O showed a Ki of 15800 µM. In the case of O=C(Nc1ccc(O)cc1)[C@@H]1O[C@H](CO)[C@@H](O)[C@H](O)[C@H]1O, the Ki is reported as 4400 µM. Work on NNC(=O)[C@H]1O[C@H](CO)[C@@H](O)[C@H](O)[C@H]1O yielded a Ki of 3000 µM. O=C(Nc1ccc(O)cc1)[C@H]1O[C@H](CO)[C@@H](O)[C@H](O)[C@H]1O gave a Ki of 5600 µM. Work on O=C(CCl)NC1O[C@H](CO)[C@@H](O)[C@H](O)[C@H]1O (single isomer, unassigned) yielded a Ki of 45 µM. Work on O=C(CBr)N[C@@H]1O[C@H](CO)[C@@H](O)[C@H](O)[C@H]1O yielded a Ki of 44 µM. CS(=O)(=O)OC[C@]1(O)O[C@H](CO)[C@@H](O)[C@H](O)[C@H]1O gave a Ki of 3700 µM. With O=C(NCc1ccc(F)cc1F)[C@H]1O[C@H](CO)[C@@H](O)[C@H](O)[C@H]1O the Ki was 27200 µM. With O=C(NCCO)[C@@H]1O[C@H](CO)[C@@H](O)[C@H](O)[C@H]1O the Ki was 2600 µM. For OC[C@H]1O[C@@H](Oc2cc3ccccc3[nH]2)[C@H](O)[C@@H](O)[C@@H]1O, the Ki was 2600 µM. In the case of O=C(NCCO)[C@H]1O[C@H](CO)[C@@H](O)[C@H](O)[C@H]1O, the Ki is reported as 16900 µM. With [N-]=[N+]=NC[C@H]1O[C@H](CO)[C@@H](O)[C@H](O)[C@H]1O the Ki was 22400 µM. In the case of CO[C@@H]1O[C@H](CO)[C@@H](O)[C@H](O)[C@H]1O, the Ki is reported as 24700 µM. With CNC(=O)[C@@H]1O[C@H](CO)[C@@H](O)[C@H](O)[C@H]1O the Ki was 160 µM. In the case of NNC(=O)[C@@H]1O[C@H](CO)[C@@H](O)[C@H](O)[C@H]1O, the Ki is reported as 400 µM. O=C1CNC(=O)C2(N1)O[C@H](CO)[C@@H](O)[C@H](O)[C@H]2O (stereo partly specified) showed a Ki of 59.7 µM. CNNC(=O)C1O[C@H](CO)[C@@H](O)[C@H](O)[C@H]1O (single isomer, unassigned) gave a Ki of 1800 µM. O=C(CSC1O[C@H](CO)[C@@H](O)[C@H](O)[C@H]1O)Nc1ccc(F)cc1F (single isomer, unassigned) gave a Ki of 18900 µM. CC(=O)NCC(=O)NC1O[C@H](CO)[C@@H](O)[C@H](O)[C@H]1O (single isomer, unassigned) gave a Ki of 990 µM. Work on CNC(=O)[C@H]1O[C@H](CO)[C@@H](O)[C@H](O)[C@H]1O yielded a Ki of 36700 µM. Compound NCC(=O)N[C@@H]1O[C@H](CO)[C@@H](O)[C@H](O)[C@H]1O has a Ki of 370 µM. Compound NC(=O)NC1O[C@H](CO)[C@@H](O)[C@H](O)[C@H]1O (single isomer, unassigned) has a Ki of 140 µM. With C[C@H]1O[C@H](CO)[C@@H](O)[C@H](O)[C@H]1O the Ki was 53100 µM. With OC[C@H]1O[C@H](CO)[C@@H](O)[C@H](O)[C@H]1O the Ki was 1500 µM. Compound N#CC[C@@H]1O[C@H](CO)[C@@H](O)[C@H](O)[C@H]1O has a Ki of 9000 µM. Work on NC(=O)[C@H]1O[C@H](CO)[C@@H](O)[C@H](O)[C@H]1O yielded a Ki of 370 µM. In the case of NC(=O)CSC1O[C@H](CO)[C@@H](O)[C@H](O)[C@H]1O (single isomer, unassigned), the Ki is reported as 21100 µM. O=C(NC1O[C@H](CO)[C@@H](O)[C@H](O)[C@H]1O)c1ccccc1 (single isomer, unassigned) gave a Ki of 81 µM. In the case of O=C(O)[C@H]1O[C@H](CO)[C@@H](O)[C@H](O)[C@H]1O, the Ki is reported as 15200 µM. O=C(Nc1ccccc1)[C@H]1O[C@H](CO)[C@@H](O)[C@H](O)[C@H]1O showed a Ki of 12600 µM. CS(=O)(=O)OC[C@@H]1O[C@H](CO)[C@@H](O)[C@H](O)[C@H]1O gave a Ki of 4800 µM. Work on N#CC[C@]1(O)O[C@H](CO)[C@@H](O)[C@H](O)[C@H]1O yielded a Ki of 7600 µM. With NC[C@@H]1O[C@H](CO)[C@@H](O)[C@H](O)[C@H]1O the Ki was 16800 µM. Work on OC[C@H]1O[C@@H](S)[C@H](O)[C@@H](O)[C@@H]1O yielded a Ki of 1000 µM. Compound OC[C@H]1S[C@H](O)[C@H](O)[C@@H](O)[C@@H]1O has a Ki of 2000 µM. O=C(NC1CC1)[C@@H]1O[C@H](CO)[C@@H](O)[C@H](O)[C@H]1O gave a Ki of 1300 µM. With COC(=O)[C@@H]1O[C@H](CO)[C@@H](O)[C@H](O)[C@H]1O the Ki was 2800 µM. NN1C(=O)NC2(O[C@H](CO)[C@@H](O)[C@H](O)[C@H]2O)C1=O (stereo partly specified) showed a Ki of 146 µM. In the case of CCC(=O)NC1O[C@H](CO)[C@@H](O)[C@H](O)[C@H]1O (single isomer, unassigned), the Ki is reported as 39 µM. In the case of O=C(CSC1O[C@H](CO)[C@@H](O)[C@H](O)[C@H]1O)Nc1ccccc1 (single isomer, unassigned), the Ki is reported as 3600 µM. Compound O=C(Nc1ccccc1)[C@@H]1O[C@H](CO)[C@@H](O)[C@H](O)[C@H]1O has a Ki of 5400 µM. CC(=O)NC1O[C@H](CO)[C@@H](O)[C@H](O)[C@H]1O (single isomer, unassigned) showed a Ki of 32 µM. In the case of NC(=O)[C@@H]1O[C@H](CO)[C@@H](O)[C@H](O)[C@H]1O, the Ki is reported as 440 µM. Compound COC(=O)N[C@@H]1O[C@H](CO)[C@@H](O)[C@H](O)[C@H]1O has a Ki of 85 µM. Work on NC[C@H]1O[C@H](CO)[C@@H](O)[C@H](O)[C@H]1O yielded a Ki of 34500 µM. In the case of CCCC(=O)NC1O[C@H](CO)[C@@H](O)[C@H](O)[C@H]1O (single isomer, unassigned), the Ki is reported as 94 µM. Work on NCC[C@@H]1O[C@H](CO)[C@@H](O)[C@H](O)[C@H]1O yielded a Ki of 4500 µM. COC(=O)[C@H]1O[C@H](CO)[C@@H](O)[C@H](O)[C@H]1O showed a Ki of 24200 µM. Work on [N-]=[N+]=NC[C@]1(O)O[C@H](CO)[C@@H](O)[C@H](O)[C@H]1O yielded a Ki of 7400 µM. O=C(NCC(F)(F)F)[C@@H]1O[C@H](CO)[C@@H](O)[C@H](O)[C@H]1O showed a Ki of 8100 µM. Work on COC(=O)N[C@]1(C(N)=O)O[C@H](CO)[C@@H](O)[C@H](O)[C@H]1O yielded a Ki of 16 µM.
